Assay results published in paper doi:10.1101/2022.03.12.484055v1 (biorxiv, 2022).

Target: T1, ASIC1 (hASIC1; ASIC1a as primary isoform in tsA-201 cells) (Homo sapiens, UniProt P78348)
T1 sequence (P78348 1-528): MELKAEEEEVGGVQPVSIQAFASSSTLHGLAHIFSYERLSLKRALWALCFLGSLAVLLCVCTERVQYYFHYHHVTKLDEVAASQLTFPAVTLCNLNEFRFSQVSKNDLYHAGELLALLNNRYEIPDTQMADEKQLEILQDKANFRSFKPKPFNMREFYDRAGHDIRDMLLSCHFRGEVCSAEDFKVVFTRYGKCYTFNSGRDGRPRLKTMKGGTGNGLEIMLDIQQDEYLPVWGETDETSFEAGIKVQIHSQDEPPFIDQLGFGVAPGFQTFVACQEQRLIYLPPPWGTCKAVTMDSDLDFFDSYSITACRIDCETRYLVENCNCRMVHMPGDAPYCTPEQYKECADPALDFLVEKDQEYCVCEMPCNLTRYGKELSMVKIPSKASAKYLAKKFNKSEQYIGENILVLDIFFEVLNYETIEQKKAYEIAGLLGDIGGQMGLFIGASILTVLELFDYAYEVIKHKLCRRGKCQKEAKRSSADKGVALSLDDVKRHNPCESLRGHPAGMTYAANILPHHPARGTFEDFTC
Experiment: cell-based
Settings: tsA201, read-out: % inhibition @ 30 µM

Compound	inhibition at 30 µM
N=C(N)NC(=O)c1nc(-c2ccc(C(F)(F)F)cc2)c(N2CCCC2)nc1N [compound 78, 78]	78%
N=C(N)NC(=O)c1nc(-c2ccc(C(F)(F)F)cc2)c(C2CC2)nc1N [compound 79, 79]	65%
N=C(N)NC(=O)c1nc(Cl)c(N2CCOCC2)nc1N [compound 80, 80]	75%
N=C(N)NC(=O)c1nc(Cl)c(N2CCCOCC2)nc1N [compound 83, 83]	67%
N=C(N)NC(=O)c1nc(-c2cncnc2)c(N2CCCOCC2)nc1N [compound 84, 84]	14%
COc1ncc(-c2nc(C(=O)NC(=N)N)c(N)nc2N2CCCOCC2)cn1 [compound 85, 85]	8%
N=C(N)NC(=O)c1nc(-c2cc3ccccc3o2)c(N2CCCOCC2)nc1N [compound 86, 86]	26%

Target: T1, ASIC1 (hASIC1; ASIC1a as primary isoform in tsA-201 cells)
Experiment: cell-based
Settings: tsA201, read-out: % inhibition @ 30 µM
Remark: another data set of the same source

Compound	inhibition at 30 µM
N=C(N)NC(=O)c1nc(Cl)c(NCc2ccccc2)nc1N [compound 87]	90%
N=C(N)NC(=O)c1nc(Cl)c(NCCc2ccccc2)nc1N [compound 88]	91%
N#CCCNc1nc(N)c(C(=O)NC(=N)N)nc1Cl [compound 89]	80%
N=C(N)NC(=O)c1nc(Cl)c(NCCP(=O)(O)O)nc1N [compound 90, 90]	81%
Cc1ccc(S(=O)(=O)NCCNc2nc(N)c(C(=O)NC(=N)N)nc2Cl)cc1 [compound 91]	79%
N=C(N)NC(=O)c1ccccc1 [compound 92, 92]	22%
N=C(N)NC(=O)c1ccccn1 [compound 93, 93]	22%
CC(C)c1ccc(C(=O)NC(=N)N)cc1S(C)(=O)=O [compound 95, 95]	37%
N=C(NC(=O)c1nc(Cl)c(N)nc1N)Nc1ccccc1 [compound 96, 96]	94%
N=C(N)NC(=O)c1nc(I)c(N)nc1N [compound 97]	95%

Target: T1, ASIC1 (hASIC1; ASIC1a as primary isoform in tsA-201 cells)
Experiment: cell-based
Settings: tsA201, read-out: % inhibition @ 30 µM
Remark: another data set of the same source

Compound	inhibition at 30 µM
COC(=O)c1nc(-c2cc3ccccc3o2)c(N2CCCCCC2)nc1N [compound 67, 67]	9%
Nc1nc(N2CCCCCC2)c(-c2cc3ccccc3o2)nc1C(=O)O [compound 68, 68]	6%
CN(C)C(=O)c1nc(-c2cc3ccccc3o2)c(N2CCCCCC2)nc1N [compound 69, 69]	10%
Nc1nnc(-c2nc(-c3cc4ccccc4o3)c(N3CCCCCC3)nc2N)[nH]1 [compound 70, 70]	15%
Nc1noc(-c2nc(-c3cc4ccccc4o3)c(N3CCCCCC3)nc2N)n1 [compound 71, 71]	8%
CN(C)CCC(=O)c1nc(-c2cc3ccccc3o2)c(N2CCCCCC2)nc1N [compound 72, 72]	31%
N=C(N)NC(=O)c1nc(-c2cnc(N)nc2)c(N2CCCCCC2)nc1N [compound 73, 73]	6%
CNc1ncc(-c2nc(C(=O)NC(=N)N)c(N)nc2N2CCCCCC2)cn1 [compound 74, 74]	27%
CC(C)Nc1ncc(-c2nc(C(=O)NC(=N)N)c(N)nc2N2CCCCCC2)cn1 [compound 75, 75]	11%
N=C(N)NC(=O)c1nc(-c2cnc(NCCO)nc2)c(N2CCCCCC2)nc1N [compound 76, 76]	6%

Target: T1, ASIC1 (hASIC1; ASIC1a as primary isoform in tsA-201 cells)
Experiment: cell-based
Settings: tsA201, read-out: % inhibition @ 30 µM
Remark: another data set of the same source

Compound	inhibition at 30 µM
N=C(N)NC(=O)c1nc(Cl)c(N)nc1N [compound 11, amiloride]	88%
N=C(N)NC(=O)c1nc(Cl)c(N2CCCCCC2)nc1N [compound 13, HMA]	79%
N=C(N)NC(=O)c1nc(-c2ccco2)c(N2CCCCCC2)nc1N [compound 15, 15]	46%
N=C(N)NC(=O)c1nc(-c2cc3ccccc3o2)c(N2CCCCCC2)nc1N [compound 17]	64%
N=C(N)NC(=O)c1nc(-c2cc3ccccc3s2)c(N)nc1N [compound 18, 18]	45%
N=C(N)NC(=O)c1nc(-c2cc3ccccc3s2)c(N2CCCCCC2)nc1N [compound 19, 19]	67%
Cc1ccc2oc(-c3nc(C(=O)NC(=N)N)c(N)nc3N)cc2c1 [compound 20, 20]	65%
CC(C)(C)c1ccc2oc(-c3nc(C(=O)NC(=N)N)c(N)nc3N3CCCCCC3)cc2c1 [compound 22, 22]	44%
N=C(N)NC(=O)c1nc(-c2cc3cc(F)ccc3o2)c(N2CCCCCC2)nc1N [compound 24, 24]	58%
N=C(N)NC(=O)c1nc(-c2cc3cc(Cl)ccc3o2)c(N)nc1N [compound 25, 25]	69%
N=C(N)NC(=O)c1nc(-c2cc3cc(Cl)ccc3o2)c(N2CCCCCC2)nc1N [compound 26, 26]	35%
N=C(N)NC(=O)c1nc(-c2cc3cc(Br)ccc3o2)c(N)nc1N [compound 27, 27]	45%
N=C(N)NC(=O)c1nc(-c2cc3cc(Br)ccc3o2)c(N2CCCCCC2)nc1N [compound 28, 28]	59%
COc1ccc2oc(-c3nc(C(=O)NC(=N)N)c(N)nc3N3CCCCCC3)cc2c1 [compound 30, 30]	35%
N#Cc1ccc2oc(-c3nc(C(=O)NC(=N)N)c(N)nc3N)cc2c1 [compound 31, 31]	30%
N#Cc1ccc2oc(-c3nc(C(=O)NC(=N)N)c(N)nc3N3CCCCCC3)cc2c1 [compound 32, 32]	64%

Compound	inhibition at 30 µM
COc1ccc2cc(-c3nc(C(=O)NC(=N)N)c(N)nc3N)oc2c1 [compound 33, 33]	68%
N=C(N)NC(=O)c1nc(-c2cc3cc(F)cc(F)c3o2)c(N2CCCCCC2)nc1N [compound 36, 36]	69%
N=C(N)NC(=O)c1nc(-c2cc3ncccc3o2)c(N)nc1N [compound 37, 37]	17%
N=C(N)NC(=O)c1nc(-c2cc3ncccc3o2)c(N2CCCCCC2)nc1N [compound 38, 38]	20%
N=C(N)NC(=O)c1nc(-c2cc3cnccc3o2)c(N)nc1N [compound 39, 39]	36%
N=C(N)NC(=O)c1nc(-c2cc3cnccc3o2)c(N2CCCCCC2)nc1N [compound 40, 40]	21%
N=C(N)NC(=O)c1nc(-c2ccc3c(c2)CCO3)c(N)nc1N [compound 41, 41]	22%
N=C(N)NC(=O)c1nc(-c2ccc3c(c2)CCO3)c(N2CCCCCC2)nc1N [compound 42, 42]	49%
N=C(N)NC(=O)c1nc(-c2ccc3occc3c2)c(N)nc1N [compound 43, 43]	59%
N=C(N)NC(=O)c1nc(-c2ccc3occc3c2)c(N2CCCCCC2)nc1N [compound 44, 44]	23%
N=C(N)NC(=O)c1nc(-c2cncnc2)c(N2CCCCCC2)nc1N [compound 45, 45]	25%
COc1ncc(-c2nc(C(=O)NC(=N)N)c(N)nc2N)cn1 [compound 46]	34%
COc1ncc(-c2nc(C(=O)NC(=N)N)c(N)nc2N2CCCCCC2)cn1 [compound 47]	33%
N=C(N)NC(=O)c1nc(-c2ccc(C(F)(F)F)cc2)c(N)nc1N [compound 48, 48]	44%
N=C(N)NC(=O)c1nc(-c2ccc(C(F)(F)F)cc2)c(N2CCCCCC2)nc1N [compound 49, 49]	67%
Cn1cc(-c2nc(C(=O)NC(=N)N)c(N)nc2N2CCCCCC2)cn1 [compound 50, 50]	53%

Target: T1, ASIC1 (hASIC1; ASIC1a as primary isoform in tsA-201 cells)
Experiment: cell-based
Settings: tsA201, read-out: % inhibition @ 30 µM
Remark: another data set of the same source

Compound	inhibition at 30 µM
N=C(N)NC(=O)c1nc(-c2cc3ccccc3o2)c(N2CCCC2)nc1N [compound 59, 59]	59%
N=C(N)NC(=O)c1nc(-c2cc3ccccc3o2)c(N2CCCCC2)nc1N [compound 60, 60]	54%
CCN(c1nc(N)c(C(=O)NC(=N)N)nc1-c1cc2ccccc2o1)C(C)C [compound 62, 62]	46%
N=C(N)NC(=O)c1nc(-c2cc3ccccc3o2)c(NC2CCCC2)nc1N [compound 63, 63]	22%
N=C(N)NC(=O)c1nc(-c2cc3ccccc3o2)c(NC2CCCCCC2)nc1N [compound 64, 64]	10%
N=C(N)NC(=O)c1nc(-c2cc3ccccc3o2)c(NCc2ccccc2)nc1N [compound 65, 65]	39%
N=C(N)NC(=O)c1nc(-c2cc3ccccc3o2)c(NCCc2ccccc2)nc1N [compound 66, 66]	31%

Target: T1, ASIC1 (hASIC1; ASIC1a as primary isoform in tsA-201 cells)
Experiment: automated patch clamp, single concentration
Assay type: cell-based
Settings: tsA201, read-out: % inhibition @ 30 µM

Compound	inhibition at 30 µM
N=C(N)NC(=O)c1nc(-c2ccco2)c(N)nc1N [compound 14, 14]	75 ± 1%
CC(C)(C)c1ccc2oc(-c3nc(C(=O)NC(=N)N)c(N)nc3N)cc2c1 [compound 21, 21]	71 ± 2%
